From patent US7312031B1, “Alpha-complementation viral fusion assay” (The Salk Institute for Biological Studies, priority 2002, dated 2007)

Assays:
[1] = system: fusion of 293T.CD4.Ω/CCR5 with 293T/ADA; assay: alpha-complementation fusion assay, 293T.CD4.Ω/CCR5 with 293T/ADA; assay type: cell-based, human; details: FIG. 7-9, ADA Env (CCR5-specific)
Procedure: FIG. 7 depicts the fusion of 293T.CD4.Ω/CCR5 with 293T/ADA in the presence of TAK-779.
293T (ATCC cat #CRL-1573) or HeLa (ATCC cat #CCL-2) cells (2.5×10^6) were seeded in 10 cm plates 24 hours prior to transfection. The next morning, cells were transfected with 21 μg of DNA, 7 μg pSCTZ-alpha-N85, 7 μg pRSV-Rev (Hope et al., Proc. Nat'l. Acad. Sci. U.S.A. 87: 7787-91 (1990)) and 7 μg of envelope expression vector (pSV-ADA, pSV-JRFL (Deng et al., Nature 381: 661-666 (1996)), or pCAGGS-SF33 (York-Higgins et al., J. Virol. 64: 4016-4020 (1990)). […]
Remove the plates from the water bath, spin 4000 rpm (Eppendorf tabletop centrifuge) for 1 minute to firmly pellet cells, aspirate medium, and add 100 μl of Galacto-Star lysis buffer (Perkin-Elmer). […] After 60 minutes, read β-gal activity in plates in a Packard TopCount luminometer for 15 s/well. […]
Two days later, remove the transfected cells from plates by incubating with phosphate-buffered saline containing 5 mM EDTA. The cells are then counted on hemocytometer. […]
After four hours, read β-gal activity as in Example 1.

[2] = system: fusion of 293T.CD4.Ω with 293T/SF33; assay: alpha-complementation fusion assay, 293T.CD4.Ω with 293T/SF33; assay type: cell-based, human; details: FIG. 5 and 6; SF33 Env (CXCR4-specific); 293T.CD4.Ω stable line
Procedure: Remove the plates from the water bath, spin 4000 rpm (Eppendorf tabletop centrifuge) for 1 minute to firmly pellet cells, aspirate medium, and add 100 μl of Galacto-Star lysis buffer (Perkin-Elmer). Mix well and incubate at room temperature for 5 minutes. Spin lysates 5 minutes at 4000 rpm and transfer 10 μl to a black 96-well plate (Costar). Add 100 μl of Galacto-Star substrate using a multi-channel pipettor. After 60 minutes, read β-gal activity in plates in a Packard TopCount luminometer for 15 s/well.
Transfect 293 cells with expression vector for HIV envelope protein, B-gal-α and HIV-1 Rev. Vectors used express CCR5-specific Envs (JFRL, ADA) or CXCR4-specific Envs (SF33 or JC2) driven by the cytomegalovirus promoter. Transfect the cells by lipofection or calcium phosphate standard methods.
Harvest 293-CD4.CCR5.omega cells with PBS/EDTA and count.
Prepare a microtiter plate by adding 2.5×10^5 293-CD4.CCR5.omega cells to each well with a multi-channel pipettor or robot in a volume of 50 μl of medium. Add inhibitors at different concentrations to each of the wells, in duplicate. […]

SMILES	inhibition of fusion reaction [1]	inhibition of fusion reaction [2]
Cc1ccc(-c2ccc3c(c2)C=C(C(=O)Nc2ccc(C[N+](C)(C)C4CCOCC4)cc2)CCC3)cc1.[Cl-] [TAK-779]	inhibits the fusion reaction in a concentration-dependent manner	
c1cc(CN2CCCNCCNCCCNCC2)ccc1CN1CCCNCCNCCCNCC1 [AMD3100]		inhibits the fusion reaction in a concentration-dependent manner
